What was measured:
[1] = target: AMPA receptor; test: AMPA receptor binding affinity (in vitro); details: Table 1
From the text: In Vitro activity (receptor affinity):
(§1) The test results obtained by testing the compounds of the invention for their in-vitro AMPA receptor affinity and their ability to inhibit GABA release are presented in the following table: […]

[2] = tested on: cultured cerebral cortex neurons; test: 3H-GABA release, cultured cerebral cortex neurons; type: cell-based; details: Cerebral cortex neuron; inhibition of stimulated 3H-GABA release, mouse cortical neurons, Table 1
From the text: The compounds of the invention have also been tested for their ability to inhibit GABA release from cultured cerebral cortex neurons in the following test:
^3 H-GABA Release, Cortical Neurons
Background: Neurons which express receptors for excitatory amino acids can be depolarized by such compounds and this depolarization will ultimately lead to a release of transmitter substance from the neurons. Cultured neurons obtained from 15-day-old mouse embryo cortex are mainly GABAergic and express all types of excitatory amino acid receptors. This means that they can be stimulated by high potassium or by the excitatory amino acids, NMDA, AMPA and kainate to release their neurotransmitter GABA.
^3 H-GABA may be used to label the GABA transmitter pool in the neurons and the release of ^3 H-GABA from the neurons may be used as a simple functional model for studies of the effects of excitatory amino acids and their antagonists.
Method: Cerebral cortices of 16-day-old mouse embryos are chopped in 0.4×0.4 mm cubes. The tissue is dissociated by mild trypsinization (0.1% (wt/vol) trypsin, 37° C., 15 min) and subsequently inoculated into poly-L-lysine-coated 3-cm Petri dishes containing a slightly modified DMEM (24.5 mM KCI, 30 mM glucose) supplemented with p-aminobenzoate (7 μM), insulin (100 mU/L) and 10% (vol/vol) horse serum. Cells are maintained in culture for 5-7 days with the addition of the antimitotic agent cytosine arbinoside (40 μM) from day 2 in vitro to prevent glial profileration. For further details and references, see Drejer et al. Exp. Brain Res. 47, 259 (1982).
Release experiments are performed using the model described by Drejer et al. Life Sci. 38, 2077 (1986). Cerebral cortex neurons cultured in Petri dishes (30 mm) are added 100 μM γ-vinyl-GABA one hour before the experiment in order to inhibit degradation of GABA in the neurons. 30 min before the experiment 5 μCi ^3 H-GABA is added to each culture and after this preloading period the cell monolayer at the bottom of the dish is covered with a piece of nylon mesh to protect the cells against mechanical damage and to facilitate dispersion of medium over the cell layer. The preloading medium is removed and the Petri dishes are placed in a superfusion system consisting of a peristaltic pump continously delivering thermostated 37° C. superfusion medium HEPES buffered saline (HBS): 10 mM HEPES, 135 mM NaCl, 5 mM KCI, 0.6 mM MgSO4, 1.0 mM CaCl2 and 6 mM D-glucose; pH 7.4) from a reservoir to the top of the slightly tilted Petri dish. The medium is continously collected from the lower part of the dish and delivered to a fraction collector. Initially, the cells are superfused with HBS for 15 min (flow rate 2 ml/min). Then the cells are stimulated for 30 sec every 4 min by changing the superfusion medium from HBS to a corresponding medium containing […].
Test subtances are dissolved in 50% DMSO, 48% ethanol. The final DMSO and ethanol concentration in the assay must not exceed 0.1%.
The stimulated release of ^3 H-GABA (cpm) are corrected for the mean basal release(cpm) before and after stimulation.
The stimulated release in the presence of antagonists are expressed relative to the stimulated release and the IC50 value for the antagonist is calculated (the concentration (μM) of the test substance which inhibit 50% of the stimulated ^3 H-GABA release).
as §1

[3] = tested on: AMPA-induced clonic seizures in NMRI mice; test: AMPA-induced clonic seizures; type: in vivo; details: Mus musculus; i.v. 5 min (or p.o. 30 min) before 0.3 μg icv AMPA, 10 female NMRI mice per dose; route of the value not given; read-out: ED50 (dose inhibiting 50% of the mice from having clonic seizures)
Procedure: The compound, 8-methyl-5-(4(N,N-dimethylsulphamoyl)-phenyl)-6,7,8,9-tetrahydro-1H-pyrrolo[3,2-h]isoquinoline-2,3-dione-3-oxime has also been tested for its ability to inhibit the clonic seizures induced by AMPA in the following test:
In Vivo activity (AMPA-induced clonic seizures)
AMPA given icv (intracerebroventricular) (15 μg/kg) to NMRI mice induces clonic seizures which should be inhibited by non-NMDA receptor antagonists. Method: Test compound was given i.v. 5 min (or p.o. 30 min) before a 0.3 μg icv administration of AMPA to 10 female NMRI mice (weighing 24-26 g) per dose. The number of mice experiencing clonic seizures within the next 5 min was noted. An ED50 value was calculated as the dose inhibiting 50% of the mice from having clonic seizures.

[4] = tested on: gerbil hippocampus CA1-layer, global ischaemia; test: Transient Forebrain Ischemia Model (2-VO Gerbils); type: in vivo; details: 30 mg/kg i.p. 30, 60 and 90 min post occlusion (total 90 mg/kg); ischaemic score 4 days later; Mann-Whitney test
Procedure: The compound, 8-methyl-5-(4-(N,N-dimethylsulphamoyl)-phenyl)-6,7,8,9-tetrahydro-1H-pyrrolo[3,2-h]isoquinoline-2,3-dione-3-oxime has also been tested in the following animal model of global ischaemia:
Transient Forebrain Ischemia Model (2-VO Gerbils)
Gerbils were anaesthetized with halothane, right and left carotid arteries located and occluded for 4 minutes. Animals were kept warm before and after the operation using heating lamps. During the operation the gerbils were placed on heating plates, body temperature controlled and maintained at 37°±0.5° C. Postocclusion, the gerbils were divided in two groups. One group received 30 mg/kg test compound i.p. 30, 60, and 90 min post occlusion (total dose was 90 mg/kg). The control group received 5.5% glucose i.p. at the same time intervals. Four days later, the animals were sacrificed, brains removed and cooled to -70° C. Thereafter, the brains were sectioned in […] thick sections of which 5-7 with hippocampal tissue were selected and stained with hematoxylin eosine (HE).
Based upon the degree of hippocampal damage, each hippocampus was categorised into one of four groups (Group 1: no damage in the CA1-layer; Group 2: the CA1-layer partly damaged; Group 3: the CA1-layer completely damaged; and Group 4: damage in more than just the CA1-layer). […]

Compound | IC50 [1] [nM] | IC50 [2] [nM] | ED50 [3] [mg/kg] | neuroprotective effect in the gerbil 2-VO model [4]
CN1CCc2c(-c3ccc(S(=O)(=O)Nc4ccccc4)cc3)cc3c(c2C1)NC(=O)C3=NO [8-methyl-5-(4-(N-phenylsulphamoyl)-phenyl)-6,7,8,9-tetrahydro-1H-pyrrolo[3,2-h]-isoquinoline-2,3-dione-3-oxime] | 66 | 380 |  | 
CON=C1C(=O)Nc2c1cc(-c1ccc(S(=O)(=O)N3CCOCC3)cc1)c1c2CCN(C)C1 [7-methyl-5-(4-(morpholinosulfonyl)phenyl)-6,7,8,9-tetrahydro-1H-pyrrolo[2,3-f]isoquinoline-2,3-dione-3-O-methyloxime] | 220 | 1600 |  | 
CCOC(=O)c1ccc(-c2cc3c(c4c2CCN(C)C4)NC(=O)C3=NO)cc1 [8-methyl-5-(4-(ethoxycarbonyl)phenyl)-6,7,8,9 tetrahydro-1H-pyrrolo[3,2-h]-isoquinoline-2,3-dione-3-oxime] | 100 | 3700 |  | 
CN1CCc2c(c(-c3ccc(S(=O)(=O)N4CCOCC4)cc3)cc3c2NC(=O)C3=NO)C1 [7-methyl-5-(4-(morpholinosulfonyl)phenyl)-6,7,8,9-tetrahydro-1H-pyrrolo[2,3-f]isoquinoline-2,3-dione-3-oxime] | 110 | 250 |  | 
CCOC(=O)CNS(=O)(=O)c1ccc(-c2cc3c(c4c2CCN(C)C4)NC(=O)C3=NO)cc1 [8-methyl-5-(4-(N-(ethoxycarbonylmethyl)-sulphamoyl)phenyl)-6,7,8,9-tetrahydro-1H-pyrrolo[3,2-h]isoquinoline-2,3-dione-3-oxime] | 34 | 340 |  | 

The remaining compounds from weak to strong by IC50 [1], led by results:

IC50 [1] [nM] | IC50 [2] [nM] | Compound | ED50 [3] [mg/kg] | neuroprotective effect in the gerbil 2-VO model [4]
820 | 2160 | CN1CCc2c(-c3ccc(S(=O)(=O)N4CCOCC4)cc3)cc3c(c2C1)NC(=O)C3=O [8-methyl-5-(4-(morpholinosulfonyl)-phenyl)-6,7,8,9-tetrahydro-1H-pyrrolo[3,2-h]-isoquinoline-2,3-dione] |  | 
140 | 500 | CCN1Cc2c(-c3ccc(S(=O)(=O)N4CCOCC4)cc3)cc3c(c2C1)NC(=O)C3=NO [7-ethyl-5-(4-(morpholinosulfonyl)phenyl)-1,6,7,8-tetrahydrobenzo[1,2-b:3,4-c]dipyrrole-2,3-dione-3-oxime] |  | 
140 | 190 | CN1CCc2c(-c3ccc(C(=O)N(C)C)cc3)cc3c(c2C1)NC(=O)C3=NO [8-methyl-5-(4-(N,N-dimethylcarbamoyl)-phenyl)-6,7,8,9-tetrahydro-1H-pyrrolo[3,2-h]-isoquinoline-2,3-dione-3-oxime] |  | 
130 | 500 | CN1CCc2c(-c3ccc(S(=O)(=O)N4CCN(Cc5ccc6c(c5)OCO6)CC4)cc3)cc3c(c2C1)NC(=O)C3=NO [8-methyl-5-(4-(4-(3,4-methylenedioxybenzyl)-piperazinosulfonyl)phenyl)-6,7,8,9-tetrahydro-1H-pyrrolo[3,2-h]-isoquinoline-2,3-dione-3-oxime] |  | 
50 | 130 | CN1CCc2c(-c3ccc(S(=O)(=O)N(CCO)CCO)cc3)cc3c(c2C1)NC(=O)C3=NO [8-methyl-5-(4-(N,N-bis(2-hydroxyethyl)sulphamoyl)-phenyl)-6,7,8,9-tetrahydro-1H-pyrrolo[3,2-h]-isoquinoline-2,3-dione-3-oxime] |  | 
25 | 270 | CN1CCc2c(-c3ccc(S(N)(=O)=O)cc3)cc3c(c2C1)NC(=O)C3=NO [8-methyl-5-(4-(sulphamoyl)phenyl)-6,7,8,9-tetrahydro-1H-pyrrolo[3,2-h]isoquinoline-2,3-dione-3-oxime] |  | 
20 | 120 | CN1CCc2c(-c3ccc(S(=O)(=O)N(C)C)cc3)cc3c(c2C1)NC(=O)C3=NO [8-methyl-5-(4-(N,N-dimethylsulphamoyl)-phenyl)-6,7,8,9-tetrahydro-1H-pyrrolo[3,2-h]-isoquinoline-2,3-dione-3-oxime] | 3 | significant neuroprotective effect
18 | 160 | CCN(CC)S(=O)(=O)c1ccc(-c2cc3c(c4c2CCN(C)C4)NC(=O)C3=NO)cc1 [8-methyl-5-(4-(N,N-diethylsulphamoyl)-phenyl)-6,7,8,9-tetrahydro-1H-pyrrolo[3,2-h]-isoquinoline-2,3-dione-3-oxime] |  | 

From US5801174A, “Fused indole and quinoxaline derivatives, their preparation and use” (Neurosearch A/S, priority 1994, dated 1998)
